From publication PMC11123961, “Design, Synthesis, and Biological Evaluation of the Quorum-Sensing Inhibitors of Pseudomonas aeruginosa PAO1” (Molecules, 2024)

Tests used:
[1] = system: C. violaceum CV026 QS; experiment: Half-maximal inhibitory concentration against C. violaceum CV026 QS (suppression of violacein production); assay type: cell-based; conditions: Chromobacterium violaceum; C6-HSL-induced violacein production, 12 h; mean ± SD of three independent tests; read-out: IC50, anti-CV026 QS activity
From the text: In the exploration of the QS inhibitions, C. violaceum CV026, a mini-T5 mutant of C. violaceum ATCC31532, is frequently employed as a biosensor strain. Because C. violaceum CV026 lacks the CviI gene, which directs the synthesis of AHLs, it is unable to manufacture violacein on its own. The violacein reaction can be induced in C. violaceum CV026 by adding exogenous C6-HSL [27]. As a result, the violacein reaction in C. violaceum CV026 can be used to assess the compounds’ suppression of QS, as used in this investigation.
3.2.2. The Half-Maximal Inhibitory Concentration (IC50) of Compounds against C. violaceum CV026 QS [36]
Subsequently, the log phase of C. violaceum CV026 was placed in a 12-well plate (2 mL/well) after being diluted 10-fold with fresh LB medium. The experimental group received 15 μL of the diluted inducer C6-HSL (0.125 mM), and 8 μL of each dilution gradient compound was added to each well, while the positive control group received 8 μL of C10-HSL, and the blank control group received 8 μL of LB medium. The plates were incubated at 30 °C and 130 rpm for 12 h. After centrifuging 1 mL of the culture for 10 min at 11,255 g, the supernatant was discarded. After dissolving the violacein with 500 μL of DMSO, the mixture was centrifuged once more at 11,255 g for 10 min. In order to measure the absorbance at 585 nm, 200 μL of the upper pigment was added to a 96-well plate. The IC50 was calculated using GraphPad Prism 5 according to the formula (absorbance at 585 nm of the test concentration/the absorbance of the control at 585 nm × 100%).

[2] = system: P. aeruginosa PAO1 biofilms; experiment: Biofilm quantification, crystal violet assay; assay type: cell-based, Pseudomonas aeruginosa; conditions: Pseudomonas aeruginosa, PAO1
Protocol: 3.2.3. Biofilm Quantification Assays
The crystal violet assay was used to quantitatively analyze the biofilm, as previously described. P. aeruginosa PAO1 log phase was diluted 100 times with fresh LB medium and incubated for 3.5 h at 37 °C and 150 rpm. After that, the P. aeruginosa PAO1 bacterial culture was added to the 96-well plate. P. aeruginosa PAO1 bacterial culture in 90 μL was added to the experimental group, and 10 μL of the test compound at a final concentration of 325 μM, 162.5 μM, 81.25 μM, 40 μM, 20 μM, and 10 μM. Each well received 100 μL of bacterial culture for the control group and 100 μL of fresh LB medium for the blank group. After 20 h of incubation at 37 °C, the bacterial culture was removed from the 96-well plate, and it was dried after three PBS washes. Each well received […] of 0.1% crystal violet (CV) for a 15 min staining period. Each well was washed three times with PBS after the CV was removed. Lastly, each well received 150 μL of 33% glacial acetic acid, and a Biotek multi-function microplate reader was used to measure the absorbance value at 595 nm. The biofilm inhibition rate was calculated as follows = (OD595 blank − OD595 sample)/OD595 blank × 100%.

[3] = system: P. aeruginosa PAO1 swarming motility; experiment: Swarming motility analysis; assay type: cell-based, Pseudomonas aeruginosa; conditions: 40 μM, 81.25 μM and 162.5 μM, swarming agar plates
Protocol: 3.2.6. Swarming Motility Analysis
After being inoculated into LB medium, P. aeruginosa PAO1 was cultivated at 37 °C and 150 rpm until OD600 = 1.0. Then, 1 μL of P. aeruginosa PAO1 bacterial medium was inoculated into the center of swarming solid medium (0.8% nutrient broth (BD), 0.5% glucose, 0.3% agar (BD)) and cultured at 30 °C for 16 h. Then, the colonies of the swarming plate were picked and added to the center of the cooled swarming solid medium (0.8% nutrient broth (BD), 0.5% glucose, 0.5% agar (BD)), which had been supplemented with compounds and cultured at 30 °C for 24 h.

[4] = Pharmacokinetics in male CD1 mice; assay type: in vivo
Protocol: Beijing Pharmaron Inc. carried out pharmacokinetic studies relating to compound Y-31 in mice. All of the animals were kept in a pathogen-free barrier animal facility, and the company’s Animal Care and Use Committee approved the experiments. On the day of administration, the sample solution was made into a 5, 20 mg/kg solution. Following a single dosage of compound Y-31 either intravenously (5 mg/kg, IV) or orally (20 mg/kg, PO) at 0.25, 0.5, 1, 2, 4, 6, 8, and 24 h post-administration, blood samples were taken from CD1 male mice (n = 3). After that, the plasma was centrifuged for […] at 4000 g and 4 °C to yield. The plasma was diluted 3 times with water. For quantitative analysis, a measurement of 2 µL of diluted supernatant was put into the LC/MS/MS apparatus. […] Phoenix WinNonlin 8.0 software was applied to calculate the pharmacokinetic parameters.

[5] = mouse, plasma, IV, 5 mg/kg, male CD1 mice
[6] = mouse, plasma, PO, 20 mg/kg, male CD1 mice

**Q.** What does the source list for `O=C(CCCOc1ccc(I)cc1)NN1CCCOC1=O` [Y-31]?
**A.** IC50 [1]: 91.5 ± 3.35 µM; inhibition at 40 µM ([2]; 40 μM, read-out: P. aeruginosa PAO1 biofilm inhibition rate): 40.4%; inhibition at 20.3125 µM ([2]; concentration 20.3125 (unit not given in Table S1; μM in method), 20 h, read-out: Inhibition ratio of biofilm): 21.1%; inhibition at 40.625 µM ([2]; concentration 40.625 (unit not given in Table S1; μM in method), 20 h, read-out: Inhibition ratio of biofilm): 40.4%; inhibition at 81.25 µM ([2]; concentration 81.25 (unit not given in Table S1; μM in method), 20 h, read-out: Inhibition ratio of biofilm): 39.5%; inhibition at 162.5 µM ([2]; concentration 162.5 (unit not given in Table S1; μM in method), 20 h, read-out: Inhibition ratio of biofilm): 42.1%; inhibition at 325 µM ([2]; concentration 325 (unit not given in Table S1; μM in method), 20 h, read-out: Inhibition ratio of biofilm): 41%; Swarming motility compared to the control group [3]: significantly reduced swarming motility; AUC [4, 5]: 935 ng·h/mL; Cmax [4, 5]: 3290 ng/mL; Tmax [4, 5]: 4.8 min; half-life [4, 5]: 7.8 min; bioavailability ([4]; mouse, plasma, PO, 20 mg/kg vs IV 5 mg/kg, male CD1 mice, read-out: F (bioavailability)): 30.4%; AUC [4, 6]: 1100 ng·h/mL; Cmax [4, 6]: 1280 ng/mL; Tmax [4, 6]: 15 min; half-life [4, 6]: 311 min; Clinical symptoms during the pharmacokinetic trial ([4]; single dose 5 mg/kg IV or 20 mg/kg PO, CD1 male mice): no unusual clinical symptoms were noticed
